{"source": "patent US20250161238A1", "about": "“NMDAR Antagonists Prevent Ageing and Aging-Associated Conditions and Diseases Through Increasing 20S Proteasome Activity” (priority 2022, published 2025)", "key": {"mice": {"system": "mice", "experiment": "Color change and condition of fur of aged mice", "type": "in vivo", "conditions": "22 months of age; 3 mg/Kg/per day with drinking water", "from_the_text": "Ten mice, one year old, were supplied for the study. The mice were divided into two groups and one added memenatine to their drinking water, while the other group was designated as the control group. Mice were followed until they were 2 years old. Clinical frailty tests were investigated and compared in the two groups of mice at 22 months. The simplest and most easly determined findings of clinical signs of deterioration in aging mice are the evaluation of changes in mouse skin.\nThe experimental protocols were approved by the Ethics Committee of Ankara University, Faculty of Medicine, Medical Sciences Experimental Research and Application Center (Date: Dec. 11, 2019 and Decision number: 2019-22-189). Adult (12-mounts-old) C57BL/6 mice (5 for each group) were used. The mice were housed at the Experimental Animal Research Laboratory of Ankara University Faculty of Medicine. Food and water were given without restriction. The ambient temperature was kept at 21±2° C., and locomotor activity tests were performed at this temperature. The animals were housed in a room with a 12-hour light/dark cycle. The procedures in the study were performed in accordance with the Ankara University Animal Care Committee according to international guidelines. […] Tests related to locomotor activities of the mice were recorded and available."}, "hippocampal slices": {"system": "hippocampal slices", "conditions": "6-10 uM; cited from earlier work"}, "amyloid": {"system": "amyloid", "experiment": "Amyloid staining of mouse tissues", "type": "in vivo", "conditions": "mice at 22 months", "from_the_text": "In the next study, the effects of NMDAR blocker on amyloid accumulation in brain, liver, and kidney of mice with the presence of memantine and control mice groups at 22 months were investigated by amyloid staining.\nWhole frozen tissues were sectioned with a microtome and fixed in 4% paraformaldehyde, Tissues were washed in PBS and the individual staining methods used in accordance with the manufacturer's recommendations. Total pixels from fluorescence in the images were quantified using Adobe Photoshop software CS2 (Adobe Systems), and normalized to a nuclear stain."}, "mice with GD symptoms [1]": {"system": "mice with GD symptoms", "conditions": "cited from earlier work"}, "[2]": {"system": "human mesenchymal stem cells", "experiment": "MTT test of mesenchymal stem cells", "type": "cell-based", "conditions": "day 21"}, "[3]": {"target": "T1, acid beta-glucosidase (GCase) (Mus musculus, UniProt P17439)", "T1 construct": "host or cells: mice (in vivo), US 2017/0273917 A1 and Klein et al. 2016", "T1 sequence (P17439 20-515)": "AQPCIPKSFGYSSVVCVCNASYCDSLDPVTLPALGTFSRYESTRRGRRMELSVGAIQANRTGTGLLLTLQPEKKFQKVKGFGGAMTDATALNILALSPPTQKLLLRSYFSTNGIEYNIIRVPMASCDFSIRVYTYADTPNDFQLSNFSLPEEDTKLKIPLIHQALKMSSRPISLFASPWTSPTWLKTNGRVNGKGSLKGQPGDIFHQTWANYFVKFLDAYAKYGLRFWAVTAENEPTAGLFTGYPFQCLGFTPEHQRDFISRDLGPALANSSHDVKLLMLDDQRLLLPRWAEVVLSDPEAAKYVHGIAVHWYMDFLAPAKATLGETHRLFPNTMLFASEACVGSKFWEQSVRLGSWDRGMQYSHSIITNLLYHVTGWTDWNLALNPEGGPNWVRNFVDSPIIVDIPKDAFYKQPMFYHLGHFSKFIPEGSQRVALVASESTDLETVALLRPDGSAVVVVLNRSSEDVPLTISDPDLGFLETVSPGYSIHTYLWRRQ", "conditions": "in vivo; cited from earlier work"}, "mice with GD symptoms [4]": {"system": "mice with GD symptoms", "conditions": "inverted screen / hanging wire test; cited from earlier work"}, "C. elegans": {"system": "C. elegans", "experiment": "C. elegans life span in liquid medium", "type": "in vivo", "conditions": "for C. elegans survived compared to control: 20th day", "from_the_text": "C. elegans is a free-living multicellular organism. Clear age-dependent human like physiological changes at the tissue, cellular, and molecular levels make C. elegans a valuable model for research in the field of aging and life span studies (Ambros, 2006). Accordingly, it was investigated how NMDAR blockers affact the life span of C. elegans. The use of drugs in the C. elegans related studies has been applied in different ways. The drugs were either applied to the LB medium with bacteria OP50, before spreading onto Nematode Growth Medium (NGM) plates (LB medium method), or to the NGM with live (NGM live method) or dead bacteria (NGM dead method), or spotting the drug solution to the surface of plates directly (spot dead method), or growing the worms in liquid medium (liquid growing method) (Ambros, 2006). Liquid growing method achieved the best absorption efficiency in worms. […] Therefore in this invention all the experiements related with the C. elegans were completed in liquid medium. In order to understand the effectiveness of the drug according to the onset time, the memantin was added to the medium on the 1st, 7th and 14th days in a 24-day period and the number of viable worms were determined on the 20nd day.\nC. elegans strains used in this study were gift from Dr. Deniz Aksoy, Faculty of Sciency-Trakya University-Turkey. Preparation of liquid culture of C. elegans was prepared according to the Stiernagle, T. Maintenance of C. elegans (Feb. 11, 2006), WormBook, http://www.wormbook.org. Animals were grown on nematode growth medium (NGM) (50 mM NaCl, 2% agar, […], 5 mg/L cholesterol, 1.0 mM CaCl2), 1.0 mM MgSO4, 25 mM potassium phosphate, pH 6.0) seeded with Escherichia coli OP50 at 20° C. using standard methods.\nFor this purpose, the method described by Sulston, J. & Hodgkin, J. was followed. (See, Methods. in: Wood, W. B. (ed.) The Nematode Caenorhabditis elegans. (1988) Cold Spring Harbor Laboratory, Cold Spring Harbor: 587-606.; Solis, G. M., Petrascheck, M. Measuring Caenorhabditis elegans Life Span in 96 Well Microtiter Plates. 2011, J. Vis. Exp. (49)) Two-3 days old worms with eggs growing in NGM were transferred to 50 ml flask using S-medium. After centrifugation, worms were treated with 20% Alkaline Hypochlorite Solution and the eggs were transferred to the S-medium after washing with S-medium.\nTo sterilize the animals 300 μL of a 6 mM Fluorodeoxyuridine (FUDR) stock solution was added to 10 ml medium. During the monitoring of their life span, the worms were kept by shaking at a constant speed of 200 rpm. Locomotor activities of the worms were recorded and available."}, "NMDA receptor": {"system": "NMDA receptor", "conditions": "cited from earlier work"}}, "note": "Entries after “also recorded” stand apart in the source; their conditions may differ.", "data": [{"smiles": "CC12CC3CC(C)(C1)CC(N)(C3)C2", "note": "[memantine, 3,5-dimethyladamantan-1-amine]", "values": [{"measurement": "color change and condition of mouse fur", "setting": "mice", "value": "very different in favor of those who received memantine"}, {"measurement": "LTP in hippocampal slices", "setting": "hippocampal slices", "value": "do not attenuate"}, {"measurement": "amount of amyloid in brain tissue", "setting": "amyloid", "value": "most significant difference"}, {"measurement": "amount of amyloid in liver and kidney", "setting": "amyloid", "value": "statistically significant decrease"}, {"measurement": "life span of mice with Gaucher disease symptoms", "setting": "mice with GD symptoms [1]; A/J, C3H/HeJ, DBA/2J, C57BL6/JolaHsd, CBE 25 mg/kg day", "value": "dramatically extended; also recorded: extend the lifespan"}, {"measurement": "life span with memantine dose increased by 10 fold", "setting": "mice with GD symptoms [1]; mouse, in vivo", "value": "increases the life span of mice even more"}, {"measurement": "lifespan of human mesenchymal stem cells (MTT test)", "setting": "[2]", "value": "increase the lifespan"}, {"measurement": "Gcase inhibition and level of Gcase substrates GlcCer and GSLs", "setting": "[3]", "value": "no effect"}, {"measurement": "muscle strength / motor coordination of GD mice", "setting": "mice with GD symptoms [4]", "value": "much better; also recorded: improved significantly; also recorded: increase the muscle strength"}, {"measurement": "C. elegans survived compared to control", "setting": "C. elegans; memantin started on day 7 or day 1", "value": "~3", "unit": "times"}, {"measurement": "C. elegans survived compared to control", "setting": "C. elegans; memantin started on the 14th day", "value": 67, "unit": "%"}, {"measurement": "worms survived compared to no-treatment", "setting": "C. elegans; day 21", "value": 4, "unit": "times"}, {"measurement": "life span of C. elegans", "setting": "C. elegans; log-rank (Kaplan-Meier)", "value": "increase"}, {"measurement": "block of NR2C and NR2D Subunits", "setting": "NMDA receptor", "value": "preferentially blocks"}, {"measurement": "effects at NR2A", "setting": "NMDA receptor", "value": "weak effects"}, {"measurement": "potency at NR1A/2B", "setting": "NMDA receptor", "value": "intermediate potency"}, {"measurement": "levels at which the mechanism of action is specific for antagonism of the NMDA receptor", "setting": "NMDA receptor; does not affect other ligand-gated or Voltage gated channels", "value": "1 to 10", "unit": "µM"}]}]}
